Measured values as given in the supplement of paper PMC11208160.

Experiment: recombinant barcode read abundance after kanamycin selection (control-corrected) (log10(CPM+1)); higher = more efficient recombination; sequences stand for … in AGTGCAGAGAAAATCGGCCAGTTTTCTCTGCCTGCAGTCCGCATGCCGT…AGATTTATGCAGCGGACTGCCTTTCTCCCAAAGTGATAAACCGGACAGTATCATGGACCGGTTTTCCCGGTAATCCGTATTTGCAAGGTTGGTTTCACT; site = the 11-nt target
Procedure: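 Pooled E. coli target-specificity screen for the IS621 bridge recombinase. Each library plasmid pairs an 11-nt target (CT core) with a bridge RNA whose target-binding loop (9-nt LTG + 4-nt RTG) is reprogrammed; the rest of the 177-nt WT IS621 bridge RNA scaffold is fixed. The plasmid is co-electroporated with a WT donor plasmid; recombinase is induced with 0.1 mM IPTG and recombinants are selected on kanamycin. Recombinant barcodes are sequenced, converted to CPM, averaged over two biological replicates and corrected by the unselected control CPM. Molecule = full bridge RNA written as DNA: LTG = specificity nt 1-9, RTG = reverse complement of specificity nt 8-11, in the WT scaffold.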
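Note: IS621 recombinase and bridge RNA in Escherichia coli cells.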

With “AACTTCACTTGGGTTCTAACCTGTTGCCT (site AACTTCGCTAG)” the “recombinant barcode read abundance (log10)” value was 0.364.

In the case of “AACTTCACTTGGGTTCTAACCTGTTGCCT (site AACTTCTCTAG)”, the “recombinant barcode read abundance (log10)” value is reported as 0.0193.

With “AACTTTCCTTGGGTTCTAACCTGTTGCAT (site AACTATCCTAT)” the “recombinant barcode read abundance (log10)” value was 0.0732.

In the case of “AACTTTCCTTGGGTTCTAACCTGTTGCAT (site AACTCTCCTAT)”, the “recombinant barcode read abundance (log10)” value is reported as 0.465.

For “AACTTTCCTTGGGTTCTAACCTGTTGCAT (site AACTGTCCTAT)”, the “recombinant barcode read abundance (log10)” value was 0.0344.

With “AACTTTCCTTGGGTTCTAACCTGTTGCAT (site AACTTTCCTAT)” the “recombinant barcode read abundance (log10)” value was 0.259.

With “AAGAAGCCTTGGGTTCTAACCTGTTGCCT (site AAGAAGCCTAG)” the “recombinant barcode read abundance (log10)” value was 2.01.

With “AAGAAGCCTTGGGTTCTAACCTGTTGCCT (site CAGAAGCCTAG)” the “recombinant barcode read abundance (log10)” value was 0.717.

With “AAGAAGCCTTGGGTTCTAACCTGTTGCCT (site GAGAAGCCTAG)” the “recombinant barcode read abundance (log10)” value was 0.14.

For “AAGAAGCCTTGGGTTCTAACCTGTTGCCT (site TAGAAGCCTAG)”, the “recombinant barcode read abundance (log10)” value was 0.337.

With “AAGAATACTTGGGTTCTAACCTGTTGCCT (site AAGAATACTAG)” the “recombinant barcode read abundance (log10)” value was 1.16.

In the case of “AAGAATACTTGGGTTCTAACCTGTTGCCT (site GAGAATACTAC)”, the “recombinant barcode read abundance (log10)” value is reported as 0.011.

With “AAGACATCTTGGGTTCTAACCTGTTGCTT (site AAGACATCTAA)” the “recombinant barcode read abundance (log10)” value was 1.19.

With “AAGACATCTTGGGTTCTAACCTGTTGCTT (site TAGACATCTAT)” the “recombinant barcode read abundance (log10)” value was 0.24.

In the case of “AAGAGTCCTTGGGTTCTAACCTGTTGCGT (site AAAAGTCCTAG)”, the “recombinant barcode read abundance (log10)” value is reported as 0.423.

With “AAGAGTCCTTGGGTTCTAACCTGTTGCGT (site AAGAGTCCTAC)” the “recombinant barcode read abundance (log10)” value was 2.55.

In the case of “AAGATACCTTGGGTTCTAACCTGTTGCTT (site AAGATACCTAA)”, the “recombinant barcode read abundance (log10)” value is reported as 1.29.

With “AAGATACCTTGGGTTCTAACCTGTTGCTT (site AAGATACCTCA)” the “recombinant barcode read abundance (log10)” value was 0.36.

In the case of “AAGATGTCTTGGGTTCTAACCTGTTGCTG (site AAGATGTCTCA)”, the “recombinant barcode read abundance (log10)” value is reported as 1.74.

For “AAGATGTCTTGGGTTCTAACCTGTTGCTG (site TAGAAGTCTCA)”, the “recombinant barcode read abundance (log10)” value was 0.0558.

For “AAGATTCCTTGGGTTCTAACCTGTTGCCT (site AAGATTCCTAG)”, the “recombinant barcode read abundance (log10)” value was 0.575.

For “AAGATTCCTTGGGTTCTAACCTGTTGCCT (site ACGATTCCTAG)”, the “recombinant barcode read abundance (log10)” value was 0.0379.

For “AAGATTCCTTGGGTTCTAACCTGTTGCCT (site AGGATTCCTAG)”, the “recombinant barcode read abundance (log10)” value was 0.111.

With “AAGATTCCTTGGGTTCTAACCTGTTGCCT (site ATGATTCCTAG)” the “recombinant barcode read abundance (log10)” value was 0.217.

In the case of “AAGCATGCTTGGGTTCTAACCTGTTGCTA (site AAGCATGCTTA)”, the “recombinant barcode read abundance (log10)” value is reported as 0.883.

For “AAGCATGCTTGGGTTCTAACCTGTTGCTA (site CTCTTAACTCC)”, the “recombinant barcode read abundance (log10)” value was 0.0074.

For “AAGCCAACTTGGGTTCTAACCTGTTGCCT (site AAGCAAACTAG)”, the “recombinant barcode read abundance (log10)” value was 0.294.

With “AAGCCAACTTGGGTTCTAACCTGTTGCCT (site AAGCCAACTAG)” the “recombinant barcode read abundance (log10)” value was 1.19.

In the case of “AAGCCAACTTGGGTTCTAACCTGTTGCCT (site AAGCGAACTAG)”, the “recombinant barcode read abundance (log10)” value is reported as 0.181.

For “AAGCCAACTTGGGTTCTAACCTGTTGCCT (site AAGCTAACTAG)”, the “recombinant barcode read abundance (log10)” value was 0.172.

For “AAGCCCTCTTGGGTTCTAACCTGTTGCTT (site AAGACCTCTAA)”, the “recombinant barcode read abundance (log10)” value was 0.144.

For “AAGCCCTCTTGGGTTCTAACCTGTTGCTT (site AAGCCCTCTAA)”, the “recombinant barcode read abundance (log10)” value was 2.53.

In the case of “AAGCCCTCTTGGGTTCTAACCTGTTGCTT (site AAGGCCTCTAA)”, the “recombinant barcode read abundance (log10)” value is reported as 0.

With “AAGCCCTCTTGGGTTCTAACCTGTTGCTT (site AAGTCCTCTAA)” the “recombinant barcode read abundance (log10)” value was 0.0167.

For “AAGCCTTCTTGGGTTCTAACCTGTTGCTG (site AAGCCTTCTCA)”, the “recombinant barcode read abundance (log10)” value was 1.68.

In the case of “AAGCCTTCTTGGGTTCTAACCTGTTGCTG (site GAGCCTTCTCT)”, the “recombinant barcode read abundance (log10)” value is reported as 0.236.

For “AAGCGAACTTGGGTTCTAACCTGTTGCCT (site AAGCAAACTAG)”, the “recombinant barcode read abundance (log10)” value was 0.274.

For “AAGCGAACTTGGGTTCTAACCTGTTGCCT (site AAGCCAACTAG)”, the “recombinant barcode read abundance (log10)” value was 0.238.

In the case of “AAGCGAACTTGGGTTCTAACCTGTTGCCT (site AAGCGAACTAG)”, the “recombinant barcode read abundance (log10)” value is reported as 2.07.

For “AAGCGAACTTGGGTTCTAACCTGTTGCCT (site AAGCTAACTAG)”, the “recombinant barcode read abundance (log10)” value was 0.319.

For “AAGCTAACTTGGGTTCTAACCTGTTGCCT (site AAGCAAACTAG)”, the “recombinant barcode read abundance (log10)” value was 0.044.

With “AAGCTAACTTGGGTTCTAACCTGTTGCCT (site AAGCCAACTAG)” the “recombinant barcode read abundance (log10)” value was 0.299.

For “AAGCTAACTTGGGTTCTAACCTGTTGCCT (site AAGCGAACTAG)”, the “recombinant barcode read abundance (log10)” value was 0.248.

With “AAGCTAACTTGGGTTCTAACCTGTTGCCT (site AAGCTAACTAG)” the “recombinant barcode read abundance (log10)” value was 1.77.

For “AAGGCCTCTTGGGTTCTAACCTGTTGCCA (site AAGGCCTCTAT)”, the “recombinant barcode read abundance (log10)” value was 0.0333.

In the case of “AAGGCCTCTTGGGTTCTAACCTGTTGCCA (site AAGGCCTCTTG)”, the “recombinant barcode read abundance (log10)” value is reported as 1.88.

In the case of “AAGGCCTCTTGGGTTCTAACCTGTTGCTT (site AAGACCTCTAA)”, the “recombinant barcode read abundance (log10)” value is reported as 0.775.

In the case of “AAGGCCTCTTGGGTTCTAACCTGTTGCTT (site AAGCCCTCTAA)”, the “recombinant barcode read abundance (log10)” value is reported as 0.156.

With “AAGGCCTCTTGGGTTCTAACCTGTTGCTT (site AAGGCCTCTAA)” the “recombinant barcode read abundance (log10)” value was 2.74.

For “AAGGCCTCTTGGGTTCTAACCTGTTGCTT (site AAGTCCTCTAA)”, the “recombinant barcode read abundance (log10)” value was 0.058.

In the case of “AAGGGCCCTTGGGTTCTAACCTGTTGCCT (site AAGGGCCCTAG)”, the “recombinant barcode read abundance (log10)” value is reported as 2.1.

In the case of “AAGGGCCCTTGGGTTCTAACCTGTTGCCT (site CAGGGCCCTAG)”, the “recombinant barcode read abundance (log10)” value is reported as 0.339.

For “AAGGGCCCTTGGGTTCTAACCTGTTGCCT (site GAGGGCCCTAG)”, the “recombinant barcode read abundance (log10)” value was 0.122.

In the case of “AAGGGCCCTTGGGTTCTAACCTGTTGCCT (site TAGGGCCCTAG)”, the “recombinant barcode read abundance (log10)” value is reported as 2.24.

In the case of “AAGGGCGCTTGGGTTCTAACCTGTTGCCT (site AAGGACGCTAG)”, the “recombinant barcode read abundance (log10)” value is reported as 0.618.

In the case of “AAGGGCGCTTGGGTTCTAACCTGTTGCCT (site AAGGCCGCTAG)”, the “recombinant barcode read abundance (log10)” value is reported as 0.238.

In the case of “AAGGGCGCTTGGGTTCTAACCTGTTGCCT (site AAGGGCGCTAG)”, the “recombinant barcode read abundance (log10)” value is reported as 1.49.

With “AAGGGCGCTTGGGTTCTAACCTGTTGCCT (site AAGGTCGCTAG)” the “recombinant barcode read abundance (log10)” value was 0.261.

In the case of “AAGGGGCCTTGGGTTCTAACCTGTTGCCT (site AAGGGGCCTAG)”, the “recombinant barcode read abundance (log10)” value is reported as 1.8.

With “AAGGGGCCTTGGGTTCTAACCTGTTGCCT (site CGATCTACTCT)” the “recombinant barcode read abundance (log10)” value was 0.271.

In the case of “AAGGGGTCTTGGGTTCTAACCTGTTGCTT (site AAGGGGTCTAA)”, the “recombinant barcode read abundance (log10)” value is reported as 3.02.

In the case of “AAGGGGTCTTGGGTTCTAACCTGTTGCTT (site ATGGGGTCTAA)”, the “recombinant barcode read abundance (log10)” value is reported as 0.898.

In the case of “AAGGTCGCTTGGGTTCTAACCTGTTGCCT (site AAGGACGCTAG)”, the “recombinant barcode read abundance (log10)” value is reported as 0.33.

With “AAGGTCGCTTGGGTTCTAACCTGTTGCCT (site AAGGCCGCTAG)” the “recombinant barcode read abundance (log10)” value was 1.14.

With “AAGGTCGCTTGGGTTCTAACCTGTTGCCT (site AAGGGCGCTAG)” the “recombinant barcode read abundance (log10)” value was 0.347.

In the case of “AAGGTCGCTTGGGTTCTAACCTGTTGCCT (site AAGGTCGCTAG)”, the “recombinant barcode read abundance (log10)” value is reported as 2.45.

With “AAGTATCCTTGGGTTCTAACCTGTTGCGG (site AAGTATCCTCC)” the “recombinant barcode read abundance (log10)” value was 2.02.

For “AAGTATCCTTGGGTTCTAACCTGTTGCGG (site AGGGATCCTCC)”, the “recombinant barcode read abundance (log10)” value was 0.349.

In the case of “AAGTATTCTTGGGTTCTAACCTGTTGCGT (site AAGTATTCTAC)”, the “recombinant barcode read abundance (log10)” value is reported as 2.23.

For “AAGTATTCTTGGGTTCTAACCTGTTGCGT (site TAGTCTTCTAC)”, the “recombinant barcode read abundance (log10)” value was 0.022.

With “AAGTCCTCTTGGGTTCTAACCTGTTGCTG (site AAGTCCTCTCA)” the “recombinant barcode read abundance (log10)” value was 1.43.

With “AAGTCCTCTTGGGTTCTAACCTGTTGCTG (site CTAAGGCCTAT)” the “recombinant barcode read abundance (log10)” value was 0.442.

For “AAGTCCTCTTGGGTTCTAACCTGTTGCTT (site AAGACCTCTAA)”, the “recombinant barcode read abundance (log10)” value was 0.0682.

In the case of “AAGTCCTCTTGGGTTCTAACCTGTTGCTT (site AAGCCCTCTAA)”, the “recombinant barcode read abundance (log10)” value is reported as 0.682.

For “AAGTCCTCTTGGGTTCTAACCTGTTGCTT (site AAGGCCTCTAA)”, the “recombinant barcode read abundance (log10)” value was 0.153.

With “AAGTCCTCTTGGGTTCTAACCTGTTGCTT (site AAGTCCTCTAA)” the “recombinant barcode read abundance (log10)” value was 1.48.

With “AAGTCGACTTGGGTTCTAACCTGTTGCCT (site AAGTCGACTAG)” the “recombinant barcode read abundance (log10)” value was 0.76.

For “AAGTCGACTTGGGTTCTAACCTGTTGCCT (site AAGTGGACTAG)”, the “recombinant barcode read abundance (log10)” value was 0.0428.

In the case of “AAGTGAGCTTGGGTTCTAACCTGTTGCCA (site AAGTGAGCTTG)”, the “recombinant barcode read abundance (log10)” value is reported as 0.408.

With “AAGTGAGCTTGGGTTCTAACCTGTTGCCA (site CTCCTCTCTAT)” the “recombinant barcode read abundance (log10)” value was 0.0964.

With “AAGTTTACTTGGGTTCTAACCTGTTGCCT (site AAGTTTACTAA)” the “recombinant barcode read abundance (log10)” value was 0.0435.

With “AAGTTTACTTGGGTTCTAACCTGTTGCCT (site AAGTTTACTAG)” the “recombinant barcode read abundance (log10)” value was 0.0875.
